Assay results: US9435813B2, “Biomarkers of hemorrhagic shock” (The General Hospital Corporation, priority 2010, dated 2016)
“Also recorded” adds a separate entry of the source.

What was measured:
myeloperoxidase (MPO) = test: Lung tissue myeloperoxidase (MPO) level, sub-lethal hemorrhagic shock; type: in vivo; conditions: rat, 40% blood volume hemorrhage, VPA 300 mg/kg IV vs vehicle, 20 hour time point, p<0.05
Method: (§1) Anesthetized Wistar-Kyoto rats (250-300 g) underwent 40% blood volume hemorrhage over 10 minutes followed by 30 minutes of un-resuscitated shock and were treated with 1) VPA 300 mg/kg or 2) vehicle control. Blood samples were obtained at baseline, following shock, and prior to sacrifice (1 hour, 4 hours, and 20 hours; n=3-4/time point/group). Serum samples were screened for possible biomarkers using a multiplex electrochemiluminescence detection assay, and results were confirmed using ELISA. Additionally, lung tissue lysate was examined for chemokine and myeloperoxidase (MPO) levels as markers for neutrophil infiltration and ALI. Additionally, lung CINC-1 (a chemokine belonging to the IL-8 family that promotes neutrophil chemotaxis) mRNA levels were measured by real-time PCR.
(§2) Animals were hemorrhaged 40% of their total blood volume to induce sub-lethal HS, and were sacrificed at 1, 4, and 20 hours following hemorrhage and treatment. […] Selected laboratory values were measured, and were indicative of moderate HS (mean lactate 0.6 mmol/L at baseline, 4.3 mmol/L after hemorrhage; mean baseline hemoglobin 12.0 g/dL at baseline, 9.6 g/dL after hemorrhage).
Myeloperoxidase (MPO) levels were measured in lung whole tissue extract as a marker for neutrophil infiltration (n=3-4/time point/group).

CINC-1 [1] = test: Lung tissue CINC-1 ELISA, sub-lethal hemorrhagic shock; type: in vivo; conditions: rat, 40% blood volume hemorrhage, VPA 300 mg/kg IV vs vehicle, 20 hour time point, p=0.17
Method: as §1
(§3) Animals were hemorrhaged 40% of their total blood volume to induce sub-lethal HS, and were sacrificed at 1, 4, and 20 hours following hemorrhage and treatment. This degree of blood loss was selected to allow 100% of animals in all groups to survive until the designated time of sacrifice. Selected laboratory values were measured, and were indicative of moderate HS (mean lactate 0.6 mmol/L at baseline, 4.3 mmol/L after hemorrhage; mean baseline hemoglobin 12.0 g/dL at baseline, 9.6 g/dL after hemorrhage).
ELISA was used to measure CINC-1 levels in lung whole tissue extract (n=3-4/time point/group).

hemorrhagic shock [2] = conditions: rats, literature (Shults et al. 2008; Li et al. 2008; WO 2007117272); cited from earlier work
claudin-3 mRNA = test: RT-PCR of intestinal claudin-3 mRNA after hemorrhagic shock; type: in vivo; conditions: rat intestine, 1, 6 and 24 hours
Method: To assess whether gene expression of claudin-3 responds to HS and VPA treatment, the mRNA expression of rat intestines among the groups of sham, HS and VPA treatment was compared at 1, 6 and 24 hours using RT-PCR methods.

CINC-1 [3] = test: Serum CINC-1 ELISA, sub-lethal hemorrhagic shock; type: in vivo; conditions: rat, 40% blood volume hemorrhage, VPA 300 mg/kg IV vs vehicle, 4 hours, p<0.05
Method: as §1, §3
Conventional ELISA was used to confirm the data obtained using the multiplex electrochemiluminescence assay.

claudin-3 [4] = test: iTRAQ quantification of claudin-3 peptide in serum after hemorrhagic shock; type: in vivo; conditions: rat serum, 24 hours post-VPA 300 mg/kg; BL to HS ratio 0.323
Method: (§4) An animal model of HS was used. Male Wistar-Kyoto rats (254.12±2.71 grams, Harlan, Indianapolis, Ind.) were used in the lethal model of hemorrhagic shock (Shults et al., J Trauma 2008; 64(3):629-638). Each animal's estimated blood volume was calculated using the formula: [estimated blood volume (mL)=weight (g)×0.06 (mL/g)+0.77]. About 1.3 mL of blood was manually drawn at the beginning and end of hemorrhage for analysis (included in the total hemorrhage calculation). The animals were hemorrhaged (40% of their calculated total blood volume) via a femoral arterial catheter over 10 minutes, followed by a 20% blood volume venous bleed over the next 50 minutes. Bleeding was performed using Kent Scientific adjustable pumps (Kent Scientific Corporation, N.J.). VPA (300 mg/kg) was administered via a femoral vein catheter after completion of hemorrhage. Blood pressure was monitored continuously during the experiment. The mean arterial pressure (MAP) in animals that were subjected to hemorrhage dropped sharply after bleeding to approximately 20 mm Hg. […]
Immunodepletion of serum abundant proteins was performed as follows. […] Column performance was monitored by sodium dodecyl sulphate-polyacrylamide gel electrophoresis (SDS-PAGE) followed by Coomassie Blue staining (BioBlue, BioRad). […]

CINC-1 mRNA = test: Lung CINC-1 mRNA by real-time PCR, sub-lethal hemorrhagic shock; type: in vivo; conditions: rat, 40% blood volume hemorrhage, VPA 300 mg/kg IV vs vehicle, 1, 4 and 20 hours
Method: as §1, §2
To rule out possibility that an increase of CINC-1 protein in lung results from induction of the gene expression, lung tissue was assessed for CINC-1 mRNA levels (n=3-4/time point/group). […]

claudin-3 [5] = test: Western blot of intestinal claudin-3 protein after hemorrhagic shock; type: in vivo; conditions: rat intestine, 1, 6, and 24 hours after VPA treatment
Method: as §4, with “experiment.” for “experiment. The mean arterial pressure (MAP) in animals that were subjected to hemorrhage dropped sharply after bleeding to approximately 20 mm Hg.”
Claudin-3 is a TJ protein that has important roles in establishing epithelial and endothelial barriers. To find out whether HS and VPA treatment affect claudin-3 protein in TJ of epithelial cells, protein expression was analyzed in intestinal tissue obtained from sham, HS 1 hour (1 hour after hemorrhagic shock), and VPA-treated animals (1 hour, 6 hours, and 24 hours after treatment). […]

hemorrhagic shock [6] = test: Survival in lethal model of hemorrhagic shock; type: in vivo; conditions: rat, HS 60% blood loss, VPA 300 mg/kg; untreated animals did not survive
Method: as §4
Male Wistar-Kyoto rats underwent HS (60% blood loss) followed by treatment with or without VPA (300 mg/kg). Serum samples were obtained at baseline (BL), end of hemorrhage (EH), and after VPA treatment (VPA), and subjected to iTRAQ and analyzed by liquid chromatography-tandem mass spectrometry (LC-MS/MS). […]

CINC-1 [7] = test: Serum CINC-1, multiplex electrochemiluminescence assay, sub-lethal hemorrhagic shock; type: in vivo; conditions: rat, 40% blood volume hemorrhage, VPA 300 mg/kg IV vs vehicle
Method: as §1
as §3, with “hemorrhage). […]” for “hemorrhage).”

22.7 kDa serum protein = test: SELDI-TOF MS serum protein profiling in lethal hemorrhagic shock model; type: in vivo; conditions: rat, 60% blood loss, VPA 300 mg/kg via femoral vein, 24 hours after treatment
Method: as §4
ProteinChip profiling was performed on CM10 ProteinChip arrays (Ciphergen Biosystems, Fremont Calif.), as recommended by the manufacturer. […] The arrays were then inserted into a ProteinChip (Enterprise edition) TOF-MS and read at an optimized laser setting of 2000 nJ-5000 nJ. […]

acute lung injury = test: Acute lung injury (ALI) following hemorrhagic shock; type: in vivo; conditions: rat, 40% blood volume hemorrhage, VPA 300 mg/kg
claudin-3 [8] = test: Western blot of serum claudin-3 after hemorrhagic shock; type: in vivo; conditions: rat serum, 1 hour following VPA treatment; two bands seen in HS 1 hour group
Method: An animal model of HS was used. Male Wistar-Kyoto rats (254.12±2.71 grams, Harlan, Indianapolis, Ind.) were used in the lethal model of hemorrhagic shock (Shults et al., J Trauma 2008; 64(3):629-638). Each animal's estimated blood volume was calculated using the formula: [estimated blood volume (mL)=weight (g)×0.06 (mL/g)+0.77]. About 1.3 mL of blood was manually drawn at the beginning and end of hemorrhage for analysis (included in the total hemorrhage calculation). The animals were hemorrhaged (40% of their calculated total blood volume) via a femoral arterial catheter over 10 minutes, followed by a 20% blood volume venous bleed over the next 50 minutes. Bleeding was performed using Kent Scientific adjustable pumps (Kent Scientific Corporation, N.J.). VPA (300 mg/kg) was administered via a femoral vein catheter after completion of hemorrhage. Blood pressure was monitored continuously during the experiment. […]
To assess whether claudin-3 is a potential biomarker, independent serum samples were taken of sham (no hemorrhage and no treatment), HS 1 hour (1 hour following hemorrhagic shock), and VPA 1 hour (1 hour following VPA treatment) from individual rats and the level of the candidate biomarker was determined by Western blot with anti-claudin-3 antibody. […]

CCCC(CCC)C(=O)O [VPA, Valproic acid]
HS-induced increase of lung MPO levels (myeloperoxidase (MPO)): significantly attenuated this effect | effects on lung CINC-1 levels (CINC-1 [1]): not statistically significant | survival after lethal HS (hemorrhagic shock [2]): improves survival | intestinal claudin-3 mRNA expression (claudin-3 mRNA): did not significantly change | HS-induced increase of circulating CINC-1 (ELISA) (CINC-1 [3]): significantly attenuated this effect | ratio of VPA to HS, claudin-3 peptide isobaric tag signal in serum (claudin-3 [4]): 0.425 | lung CINC-1 mRNA levels (CINC-1 mRNA): no significant changes between groups | intestinal claudin-3 protein level by Western blot (claudin-3 [5]): significantly attenuated the HS-induced reduction of claudin-3 | survival after hemorrhagic shock (hemorrhagic shock [6]): significantly improved survival; also recorded: survived | HS-induced rise of serum CINC-1 (multiplex electrochemiluminescence assay) (CINC-1 [7]): appeared to be attenuated | serum level of 22.7 kDa protein (SELDI-TOF MS) versus HS (22.7 kDa serum protein): down-regulated | development of ALI after hemorrhage (acute lung injury): inhibited and reduced | serum claudin-3 by Western blot (claudin-3 [8]): no claudin-3 was detected
